One test deals with HaCaT cells. The test is described as follows: Proton induced uptake (PIU) in HaCaT cells, FACS. It is filed as cell-based, human. To be noted: for extent of PIU of dextran-FITC compared to normal cells: 25 μM added 10 minutes prior, pH 5.2 for 10 minutes, dextran-FITC 70 kDa; for effect of actin cytoskeleton modifier on rate of PIU of dextran-FITC: latrunculin-A 1 μM, cytochalasin-B 10 μM, wortmannin 1 μM, calyculin-A 50 nM, 15 minutes before, pH 5.25 10 minutes, 70 kD dextran-FITC 5 μM. As for the experimental part: FIG. 6 is a chart showing PIU of molecules different by size and charge, in accordance with some embodiments of the invention. Hacat cultures were exposed to solutions of pH 5.2 or pH 7.4 for 5 minutes period, in the presence of different fluorescence molecules (All at 25 μM concentration). FACS analysis results (FL1, geometrical mean±SD) for the cell cultures exposed to pH 5.2 are presented as fold induction relative to results obtained for cells exposed to pH 7.4. This can be used, in some embodiments of the invention, to assess effect of molecule size and charge on uptake.
FIGS. 7A-7B are charts showing the comparison of PIU in adherent and suspended HaCaT cells, in accordance with some embodiments of the invention. For FIG. 7A, HaCaT cells were tested either at their adherent state, or following harvest at a suspended state. […] FACS analyses (FL1) in terms of geometrical mean±SD are presented as fold induction relative to the constitutive uptake at physiological pH 7.4. n=9 in 3 independent experiments. For FIG. 7B, HaCaT Cells were cultivated at low, medium or high cell density. […] The cultures were harvested and undergone FACS analyses (FL1) in terms of geometrical mean±SD and are presented as fold induction relative to the constitutive uptake of low density cultures. Statistical significance was tested against the confluent culture, n=9 in 3 independent experiments. In the charts, * indicates a t-test p<0.05; and ** indicates a t-test p<0.01. This can be used, in some embodiments of the invention, to assess effect of cell membrane rigidity and/or tissue structure on uptake.
FIGS. 12A-12B are a chart and images which show the relative change of PIU by modifiers of actin cytoskeleton organization, in accordance with some embodiments of the invention. […].

For test [1], the system named is COS 5-7 cells. The test can be described thus: Uptake after one minute of electric pulse train (EPT) in three-compartment device, FACS. It is filed as cell-based, African green monkey. To be noted: in the presence of both 2 mM SAA and 1 mM DHA.
Method: Exposure of cells to low-intensity trains of unipolar rectangular voltage pulses was carried in a three-compartment exposure set-up where the anode and cathode were connected to an electric pulse generator (Grass S44 Stimulator). The exposure set-up consisted of a rectangular chamber made from polystyrene, 15 mm long, 10 mm wide, with 0.5 cm^2 area platinum electrodes positioned on the extreme sides (see FIG. 15). The chamber is divided by two porous membranes (PolyEtherSulfon, 0.8 μm pores, 200 μm depth), into three distinct and equal compartments: anode, cathode and center ones. The electric field parameters applied were monitored on line by recording the voltage and the current (by means of a wide band current probe, Pearson) on an oscilloscope. Typically, a cell suspension (1*10^6 cells/ml) is exposed to a train of electric pulses consisting of unipolar rectangular pulses with duration of 180 μs, frequency of 500 Hz for the total time of exposure of one minute.
Flow cytometry analysis was carried out by FACSort (Becton @ Dickson, San Jose, Calif.), employing a 488-nm argon laser excitation. […] Ten thousand cells were examined for each sample and data were collected in the list mode. The analysis of flow cytometry data was performed using WINMDI 2.9 software (Joe Trotter, The Scripps Research Institute). For each sample the geometrical mean was calculated without including PI stained cells. Cell intensity was determined as fold of induction relative to cells' constitutive uptake.
In test [2] the test system is COS 5-7 cells. The test can be described thus: Intracellular oxidative stress (DCF fluorescence) after exposure to EPT, FACS. It is filed as cell-based, African green monkey. The conditions noted are these: EPT 20V/cm. An excerpt: FIG. 18 is a chart of intracellular oxidative stress in the presence of anti-oxidants in the extracellular and the intracellular compartments, in accordance with some embodiments of the invention. The intracellular oxidative stress measured by intracellular DCF fluorescent intensity following cell exposure to electric pulse train, analyzed by FACS (488/530 nm). Results are given as folds of geometrical mean±SD relative to the level of constitutive oxidative stress. Statistical t-test results: 2 mM SAA; p<0.05, 1 mM DHA; p<0.01.
Harvested cells were incubated with H2DCF-DA (20 μM for 90 minutes 5% CO2 at 37°). Following the loading process the cells were washed once with HBSS before exposure to EPT. H2DCF-DA is a non-fluorescent form of fluorescein, passively permeating into the cell where it is cleaved by cytosolic esterase to H2DCF. It gains its fluorescent properties when oxidized into DCF. DCF intensity was analyzed by FACS using the 530/30 nm channel.
The intracellular OS level was monitored by H2DCF, a non-fluorescent probe that is oxidized by radical hydroxyls into the fluorescent DCF form. Following the cells pre-loading with H2DCF, OS levels, as monitored by intracellular DCF fluorescence intensity, are elevated only in those cells suspended and exposed to EPT in the anode compartment (20V/cm, 200 mA/cm^2). […]

Test [3] concerns COS 5-7 cells. The test can be described thus: Uptake after one minute of chemically induced low pH (HCl added to HBSS suspension), FACS. The conditions noted are these: 50 mM. It is filed as cell-based, African green monkey. As for the experimental part:
The following tables show a connection between pH and current. […] The values in the tables are shown as folds relative to the uptake in cells unexposed to any of the treatments. […] The results are expected to be substantially independent of cell type and molecule used, except for a cell-specific change and a molecule specific change.
Cells (COS 5-7) were harvested, re-suspended in DMEM (1 mg/ml glucose, 5% FCS), and incubated (37°, 5% CO2) as designated by the experiment. For uploading the cells with either H2DCF-DA (20 μM) or Bis-DHA (1 mM) incubation lasted 90 minutes. When no pre-treatments were required, the cells were kept in the DMEM for 30 minutes. Following incubation, the cells were centrifuged at 400g for 1 min, the solution aspirated, and cells re-suspended in HBSS exposure media.
Exposure of cells to pulse acidification was through the addition of HCl to the HBSS suspension for 60 seconds, terminated by the addition of a three fold larger volume of DMEM-H.
Cell suspensions were centrifuged (400g for one minute), their solutions aspirated and they were re-suspended with 0.5 ml DMEM-H supplemented with 10u/ml dextranase (Sigma-Aldrich) for 10 minutes at RT. Cells were centrifuged again; their solution aspirated and they were re-suspended with 0.2 ml DMEM-H. PI (25 μg/ml) as a label for permeabilized cells and tryphan blue (0.01% w/v) as a fluorescence quenching agent for extracellular FITC (36) were added to each sample shortly before analysis
Flow cytometry analysis was carried out by FACSort (Becton @ Dickson, San Jose, Calif.), employing a 488-nm argon laser excitation. The green fluorescence of FITC was measured via 530/30 nm filter, the red fluorescence of PI was detected via a 585/42 nm filter. […] Ten thousand cells were examined for each sample and data were collected in the list mode. The analysis of flow cytometry data was performed using WINMDI 2.9 software (Joe Trotter, The Scripps Research Institute). For each sample the geometrical mean was calculated without including PI stained cells. Cell intensity was determined as fold of induction relative to cells' constitutive uptake.
After one minute incubation, cell suspensions were immediately diluted with 3 fold larger volume of cold buffered DMEM to restore pH to a normal pH of 7.5.

For test [4] the following is noted: 2 mM added to medium prior to EPT (20V/cm, 200 mA/cm^2).
Method: In order to determine the EPT induced oxidative stress in the extracellular media, TMB was employed, a colorless solution that transforms into blue when oxidized. TMB was added to the media before exposure to EPT. […] Light absorbance was measured using Tecan GENios plate reader at 450 nm. […] In order to moot this possibility, OS was examined in the three-compartment device, monitored by the color conversion of TMB.

Consider nine compounds from patent publication US20130004581A1, “CONTROLLING UPTAKE BY CELLS” (Ramot at Tel-Aviv University Ltd., priority 2010, published 2013).

`N#CC(C#N)=NNc1cccc(Cl)c1` [CCCP]: the “extent of PIU of dextran-FITC compared to normal cells” value in the test with HaCaT cells is “higher”.

As for `O=C1OC2C(O)COC23OC24OCC(O)C2OC(=O)C4(O)OC13O` (stereo not drawn) [DHA, Bis-Dehydroascorbic acid], the “effect on EPT induced uptake of dextran-FITC” value in the test on COS 5-7 cells [1] is given as “only a minor decrease”. For the same compound, the “effect on EPT induced increase of DCF fluorescent intensity” value in the test with COS 5-7 cells [2] (cells pre-loaded (1 mM, 90 minutes), 200 mA/cm^2) is “sufficient to abolish”.

For `[Cl-].[Na+]` [NaCl], the “change in uptake when HCl is replaced by the same concentration of salt (osmolarity control)” value with COS 5-7 cells [3] is listed as “no change in uptake was observed”.

Regarding `O=C(CCc1ccc(O)cc1)c1c(O)cc(O)cc1O` [Phloretin], the “extent of PIU of dextran-FITC compared to normal cells” value in the test on HaCaT cells is listed as “higher”.

Turning to `O=C1O[C@H]([C@@H](O)CO)C(O)=C1O.[Na]` [SAA, Sodium ascorbic acid], the “effect on EPT induced uptake of dextran-FITC” value with COS 5-7 cells [1] is “only a minor decrease”. Further, the “decline of intracellular OS (DCF fluorescence)” value with COS 5-7 cells [2] (2 mM in external medium, 200 mA/cm^2, anode compartment) stood at 66%. Moreover, in test [4], the “effect on TMB oxidation during electric exposure” value was “prevented its oxidation”.

Turning to `COC[C@@H]([C@H](O)[C@H](O)C(=O)NCC[C@H](C)c1nc(/C=C/C[C@@H]2O[C@]3(C[C@@H](O)[C@@H]2C)O[C@H]([C@H](C[C@H](O)[C@H](C)[C@H](O)[C@H](C)/C=C(C)/C(C)=C/C=C/C(C)=C\C#N)OC)[C@H](OP(=O)(O)O)C3(C)C)co1)N(C)C` [calyculin-A], in the test on HaCaT cells, the “effect of actin cytoskeleton modifier on rate of PIU of dextran-FITC” value (“effect of actin cytoskeleton modifier” for short) is listed as “relatively minute impact on PIU increase”.

With `C=C1[C@@H](C)[C@H]2[C@H](Cc3ccccc3)NC(=O)[C@]23OC(=O)/C=C/[C@H](O)CCC[C@@H](C)C/C=C/[C@H]3[C@@H]1O` [cytochalasin-B], in the test on HaCaT cells, the “effect of actin cytoskeleton modifier” value is “doubled”.

With `C/C1=C/C(=O)O[C@@H]2C[C@@H](CC[C@H](C)/C=C\C=C\CC1)O[C@@](O)([C@@H]1CSC(=O)N1)C2` [latrunculin-A], the “effect of actin cytoskeleton modifier” value in the test on HaCaT cells was “only small PIU enhancement”.

For the compound lucifer yellow, in the test with HaCaT cells (pH 5.2 vs pH 7.4, 5 minutes, 25 μM), the “extent of PIU compared with fluorescein and dextran” value was “lesser extent of PIU”.
